Patent EP0176049A2, “Aminoalkylnaphtalene derivatives having pharmacological activities” (priority 1984, dated 1986)

Tests used:
rat = experiment: paw oedema by carrageenin according to Randall-Selitto (antiinflammatory activity); type: in vivo; settings: ip
mouse [1] = experiment: hot plate test (analgesic activity); type: in vivo
[2] = acute toxicity in the mouse; type: in vivo; settings: in vivo, ip, i.p. administration
[3] = molecular target: enzymes responsible for the enkephalins hydrolysis; experiment: inhibition of the enzymes responsible for the enkephalins hydrolysis; type: biochemical
mouse [4] = experiment: acute toxicity in the mouse; type: in vivo; settings: i.p. administration

Compound `CCC(O)(c1ccc2cc(O)ccc2c1)C(C)CN(C)C` (stereo not drawn) [Example 2] has an ED50 (rat) of 1.25 mg/kg, an ED50 (mouse [1]; ip, mouse, analgesic activity) of 5.6 ± 1.51 mg/kg and an LD50 [2] of 56.2 mg/kg.
In the case of `CCC(O)(c1ccc2cc(OC)ccc2c1)C(C)CN(C)C` (stereo not drawn) [Example 1], the IC50 [3] is reported as 4 mM, the ED50 (mouse [1]; Mus musculus, route and species not restated for this value) is reported as 13.5 mg/kg and the “kind of activity in the hot plate test (reversibility by naloxone)” value (mouse [1]; naloxone antagonism) is reported as “partially reversible by naloxone”. For the same compound, the LD50 [2] was 65.8 mg/kg.
For “2-(3-dimethylamino-l-t-butyl-l-hydroxypropyl)-6-methoxy- naphtalene [Example 3]”, the IC50 [3] was 5 mM and the LD50 (mouse [4]) was 120,96 ± 5,32. mg/kg i.p.
